According to patent publication US20250197351A1, “C4-CARBOXYLIC ACID-S[…] DERIVATIVES AND METHODS OF USING” (priority 2022, published 2025):
“And” between values parts separate entries of the source, which are not always exact repeats. Identical values can stand only once.

Key:
5-HT1A receptor = target: T1, 5-HT1A receptor (Homo sapiens, UniProt P08908); assay: cAMP-Glo assay of 5-HT1A receptor modulation, CHO-K1/5-HT1A/Ga15 (+5-HT1A) vs CHO-K1/Ga15 (−5-HT1A) cells; type: cell-based; details: +5-HT1A vs −5-HT1A CHO-K1 cells; 4 μM forskolin; increasing ligand concentration
T1 construct: host or cells: CHO-K1 (co-expressing Ga15)
T1 sequence (P08908 1-422): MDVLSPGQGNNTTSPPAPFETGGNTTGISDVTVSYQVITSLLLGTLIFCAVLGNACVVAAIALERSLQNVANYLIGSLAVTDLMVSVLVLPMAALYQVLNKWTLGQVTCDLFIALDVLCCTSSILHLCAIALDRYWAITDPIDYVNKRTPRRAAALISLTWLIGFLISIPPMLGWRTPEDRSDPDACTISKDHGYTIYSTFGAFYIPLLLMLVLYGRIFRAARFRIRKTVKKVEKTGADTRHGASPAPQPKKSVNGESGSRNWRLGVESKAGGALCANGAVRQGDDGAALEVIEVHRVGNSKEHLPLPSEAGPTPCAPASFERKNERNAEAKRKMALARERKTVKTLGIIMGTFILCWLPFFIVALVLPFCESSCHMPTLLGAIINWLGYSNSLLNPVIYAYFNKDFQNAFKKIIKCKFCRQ

[1] = target: T2, 5-HT2A receptor (5-HT2AR) (Mus musculus, UniProt P35363); assay: Drug-induced Head Twitch Response (HTR); type: in vivo; details: 1 mg/kg i.p., 15-to-30-minute window post-drug, relative to vehicle
T2 construct: host or cells: C57BL/6 mice, in vivo (neuronal receptor)
T2 sequence (P35363 whole entry): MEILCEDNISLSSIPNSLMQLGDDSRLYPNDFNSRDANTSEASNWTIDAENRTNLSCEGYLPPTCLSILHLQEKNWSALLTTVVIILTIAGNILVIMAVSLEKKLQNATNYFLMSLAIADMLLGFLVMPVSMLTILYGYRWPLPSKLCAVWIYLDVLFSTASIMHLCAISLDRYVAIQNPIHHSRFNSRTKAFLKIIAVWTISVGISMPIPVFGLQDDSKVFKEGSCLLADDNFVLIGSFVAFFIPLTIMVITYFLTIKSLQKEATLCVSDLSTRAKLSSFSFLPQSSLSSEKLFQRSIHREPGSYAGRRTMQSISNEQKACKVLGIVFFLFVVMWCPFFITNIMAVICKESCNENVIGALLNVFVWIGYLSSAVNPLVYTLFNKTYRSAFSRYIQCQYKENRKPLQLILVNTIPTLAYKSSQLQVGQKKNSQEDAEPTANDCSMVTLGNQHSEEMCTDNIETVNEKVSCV

[2] = Mouse pharmacokinetic (PK) study, parent compound and psilocin metabolite in plasma; type: in vivo; details: for Plasma concentration of psilocin: individual mice, LLOQ 0.2 ng/mL
Excerpt: (§1) Briefly, the procedure was as follows. […] 19, 2022.

[3] = Dosing solution concentration by LC-MS (nominal vs measured); type: physicochemical
Protocol: as §1
Pharmacokinetic (PK) evaluations were performed in the same manner as described in Example 1, except compound C(IV) was used in place of compound C(V). […] Thus, only psilocin PK analysis was performed. […] Table 46 summarizes these “measured” concentrations along with corresponding “nominal” concentrations for each dosing solution. Results for psilocin PK following C(IV) administration are found in Tables 47A-47B (0.293 mg/kg IV dose), Tables 48A-48B (0.275 mg/kg oral dose), Tables 49A-49B (0.789 mg/kg oral dose), Tables 50A-50B (2.52 mg/kg oral dose), Table 51 (comparative summary for IV data), Table 52 (comparative summary for oral data), Table 53A (psilocin exposure) and FIGS. 10H (i) and 10H (ii).

Q: Which results are given for `CN(C)CCc1c[nH]c2cccc(OC(=O)CC3CC3)c12` [C(IV)]?
A: 5-HT1A receptor modulation (reduction of forskolin-induced cAMP) (5-HT1A receptor): significant receptor modulation; Head Twitch Response (HTR) incidence [1]: Elevated incidences of HTR; Plasma concentration of psilocin ([2]; 0.275 mg/kg oral C(IV), 4 h): BLQ; Plasma concentration of psilocin ([2]; 0.275 mg/kg oral C(IV), 6 h): BLQ; Plasma concentration of psilocin ([2]; 0.275 mg/kg oral C(IV), 8 h): BLQ; Plasma concentration of psilocin ([2]; 0.275 mg/kg oral C(IV), 24 h): No Peak; Plasma concentration of psilocin ([2]; 0.293 mg/kg i.v. C(IV), 8 h): No Peak and BLQ (2×); Plasma concentration of psilocin ([2]; 0.789 mg/kg oral C(IV), 8 h): BLQ; Plasma concentration of psilocin ([2]; 0.789 mg/kg oral C(IV), 24 h): No Peak; Plasma concentration of psilocin ([2]; 2.52 mg/kg oral C(IV), 24 h): BLQ and No Peak (2×); Detection of parent compound in plasma ([2]; mouse, any animals at any dose (i.v. and oral)): not detectable in any animals at any dose; Stability in dosing solutions [3]: compound instability in dosing solutions
